Columns and labels:
Format in all cases: physicochemical
[1] = Photophysical characterization (absorbance, emission, extinction coefficient, quantum yield); details: for ΦF / ε / λabs / λem: measured in CHCl3 (Table 1)
Description: Having established an effective synthetic route, attention was turned to the photophysical characterization of HyP-1 and red-HyP-1 (Table 1). HyP-1 has an absorbance maximum at 670 nm and corresponding emission maximum at 697 nm (FIG. 3a). The extinction coefficient (ε) and quantum yield (ΦF) were measured to be 1.5×10^4 cm^−1 M^−1 and 0.33 respectively. Red-HyP-1, on the other hand, has absorbance and emission maxima at 760 nm and 798 nm, respectively.
4-Aminoacetophenone was purchased from AK Scientific. Ethyl iodide, DIPEA, K2CO3, KOH, Na2SO4 and NH4OAc were purchased from Oakwood Chemicals. Benzaldehyde, BF3×OEt2, BIPY, DPI, DMSO, m-CPBA, nitroreductase and rat liver microsomes were purchased from Sigma Aldrich. Nitromethane was purchased from Alfa Aesar. Anaero-Indicators, AnaeroPacka anaerobic gas generators, acetonitrile, n-BuOH, CH2Cl2, EtOAc and Hexanes were purchased from Fisher Scientific. CDCl3 was purchased from Cambridge Isotopes Laboratory. Agarose LE was purchased from Gold Biotechnology. NADPH was purchased from EMD Millipore. All chemicals were used as purchased without further purification. Fluorinated ethylene propylene (FEP) tubing (wall thickness 0.01″, inner diameters 0.08″ and 0.12″) were purchased from McMaster-Carr. Thin-layer chromatography (TLC) was performed using glass-backed TLC plates coated with silica gel containing an UV254 fluorescent indicator (Macherey-Nagel). Flash chromatography was performed with 230-400 mesh silica gel P60 (SiliCycle Inc). UV-visible spectra were recorded on a Cary 60 spectrometer. Fluorescence spectra were recorded on a QuantaMaster-400 scanning spectrofluorometer using micro fluorescence quartz cuvettes (Science Outlet). NMR spectra were taken using Bruker or Varian 500 MHz spectrometers at 25° C. High-resolution mass spectra were acquired using Waters Q-Tof Ultima ESI and Waters Synapt G2-Si ESI/LC-MS spectrometers. Cellular imaging was performed using an EVOS FL cell imaging system. In vivo Fluorescence imaging was performed using an IVIS Spectrum CT live-animal imaging system (Perkin-Elmer, USA). PA imaging was performed using an Endra Nexus 128 photoacoustic tomography system (Ann Arbor, Mich., USA).

[2] = pH dependence of absorbance and emission spectra; details: buffers pH 4.8 to 12.0
Description: FIG. 13. (a) Absorbance and (b) fluorescence spectra of HyP-1 (2 μM) in 20 mM BRB buffers containing 50% v/v EtOH (pH range 4.8-12.0).
FIG. 14. (a) Absorbance and (b) fluorescence spectra of red-HyP-1 (2 μM) in 20 mM BRB buffers containing 50% v/v EtOH (pH range 4.8-12.0).
(§1) In addition to Fe(II), the response of HyP-1 to a variety of alkali, alkaline earth and transition metals was also determined. […] To further evaluate the stability of HyP-1, a 10 μM solution of the probe was exposed to ambient light and temperature for up to 5 days. Additionally, a 10 μM solution of HyP-1 supplemented with human plasma was incubated at 37° C. for 3 hours. […] As mentioned previously, a major limitation of 2-nitroimidazole-based hypoxia probes is their susceptibility to oxygen-independent reduction via two-electron processes, such as by bacterial nitroreductases. […] Finally, the photostability of both HyP-1 and red-HyP-1 was evaluated via continuous PA image acquisition at 770 nm over the course of 1 hour.
0.1 M potassium phosphate buffer (pH 7.4) was prepared by combining stock solutions of KH2PO4 (1 M, 0.990 mL) and K2HPO4 (1 M, 4.010 mL) and diluting to a final volume of 50 mL. […] Fine adjustments to pH were made via addition of 0.1 M HCl or 0.1 M NaOH. pH values were determined using a Mettler-Toledo SevenCompact pH meter calibrated using pH 4.0, 7.0 and 10.0 standard buffers at 25° C.

[3] = Photostability under continuous PA image acquisition; details: 770 nm, 1 hour
Description: FIG. 16. PA signal (770 nm) at the indicated time points of HyP-1 (dots) and red-HyP-1 (squares) solutions (10 μM in 0.1 M potassium phosphate buffer with 50% v/v EtOH) produced upon continuous image acquisition over the course of 1 h. Reported values represent mean PA signal observed after subtracting background signal produced from tissue-mimicking phantom.
as §1

Row | Compound | absorbance maximum [1] | emission maximum [1] | extinction coefficient (ε) [1] | quantum yield (ΦF) [1] | ΦF [1] | ε [1] | λabs [1] | λem [1] | pH dependence of absorbance and emission spectra [2] | PA intensity during continuous acquisition (photostability) [3] | decrease in quantum yield on conversion of HyP-1 to red-HyP-1 [1] | increase in extinction coefficient on conversion of HyP-1 to red-HyP-1 [1] | shift in absorbance on conversion of HyP-1 to red-HyP-1 [1]
1 | CCN(CC)c1ccc(-c2cc(-c3ccccc3)c3n2[B-](F)(F)[N+]2=C(c4ccc(OC)cc4)C=C(c4ccccc4)C2=N3)cc1 [Red-HyP-1, 4-(5,5-difluoro-7-(4-methoxyphenyl)-1,9-diphenyl-5H-5λ^4,6λ^4-dipyrrolo[1,2-c:2′,1′-f][1,3,5,2]triazaborinin-3-yl)-N,N-diethylaniline] | 760 nm | 798 nm | 54000 cm⁻¹ M⁻¹ | 0.15 | 0.15 | 5.4 × 10^4 M^−1 cm^1 | 760 nm | 798 nm | no significant pH dependence | remained unchanged | – | – | –
2 | CC[N+]([O-])(CC)c1ccc(-c2cc(-c3ccccc3)c3n2[B-](F)(F)[N+]2=C(c4ccc(OC)cc4)C=C(c4ccccc4)C2=N3)cc1 [HyP-1, 4-(5,5-difluoro-7-(4-methoxyphenyl)-1,9-diphenyl-5H-5λ^4,6λ^4-dipyrrolo[1,2-c:2′,1′-f][1,3,5,2]triazaborinin-3-yl)-N,N-diethylaniline oxide] | 670 nm | 697 nm | 15000 cm⁻¹ M⁻¹ | 0.33 | 0.33 | 1.4 × 10^4 M^−1 cm^1 | 670 nm | 697 nm | no significant pH dependence | remained unchanged | 2.2 fold | 3.6 fold | 90 nm
